These molecules were tested against T1, RORc ligand binding domain (Homo sapiens, UniProt P51449) (assay: In Vitro RORc Ligand Binding Assay). Settings: radioligand 25-[3H]hydroxycholesterol 6 nM; 0.6 ug/mL RORc receptor; 3 h at 25° C.; read-out: IC50 values (micromolar) for RORc affinity.
T1 construct: host or cells: E. coli
T1 sequence (P51449 269-508 limits assumed): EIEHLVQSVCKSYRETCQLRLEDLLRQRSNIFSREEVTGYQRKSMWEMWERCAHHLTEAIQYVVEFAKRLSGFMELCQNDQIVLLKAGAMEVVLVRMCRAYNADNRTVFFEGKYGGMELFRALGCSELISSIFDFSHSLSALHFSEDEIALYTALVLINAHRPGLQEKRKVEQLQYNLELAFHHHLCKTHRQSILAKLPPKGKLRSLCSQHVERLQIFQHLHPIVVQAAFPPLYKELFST
Method: This assay was used to determine a compound's potency in inhibiting activity of RORc by determining, Kiapp, IC50, or percent inhibition values.
On day of the assay, 100 uL of 0.05% CHAPS (in deionized H2O) was added to all wells of the GFB Unifilter plate and allowed soak for 1 h. A wash buffer of 50 mM HEPES (pH 7.4), 150 mM NaCl, and 5 mM MgCl2 was prepared to wash the filter plate. To prepare an assay buffer, BSA was added to the wash buffer to reach 0.01% and DTT was added to reach 1 mM.
The 20× compound stocks were diluted in DMSO with Assay Buffer 4-fold to reach 5× the final test concentration in 25% DMSO (10 uL compound+30 uL Assay Buffer). Solutions were mixed by aspiration several times with a pipette set on 50 uL volume. For the assay, 10 uL of 5× compound stock solutions in 25% DMSO were added to the assay plate in duplicate.
For two point screening, 10 mM stock compound solutions were diluted in DMSO to obtain 200 uM (20× the high test concentration) and then diluted 10-fold further to reach 20 uM (20× the low test concentration). The 20× stocks were diluted 4-fold with Assay Buffer (10 uL compound+30 uL Assay Buffer) to reach 5× the test concentrations (50 uM and 5 uM) and 10 uL were added to two assay plates for the duplicate wells. With each concentration tested on 2 plates, each set of 80 compounds used 4 assay plates (1 uM and 10 uM, with n=2).
For 25-hydroxycholesterol in 25% DMSO/75% Assay Buffer; 10 uL per well was used for NSB samples. Wells for Total Binding and No Receptor sample determination contained 10 uL of 25% DMSO/75% Assay Buffer per well.
Radioligand (25-[^3H]hydroxycholesterol) Preparation
Added 20 uL to all wells to reach 6 nM final in the assay.
Stock receptor solution was diluted in assay buffer to obtain 1.5 ug/mL in Assay Buffer. 20 uL was added to all wells. For No R samples, 20 uL Assay Buffer was substituted for receptor solution.
Assay plates were 96-well polypropylene V-bottom plates. 10 uL of 5× compound in 25% DMSO/75% Assay Buffer was added to Test wells. 10 uL of 25% DMSO/75% Assay Buffer was added to Total Binding or No Receptor wells. 10 uL of 5 uM 25-hydroxycholesterol in 25% DMSO/75% Assay Buffer was added to NSB wells. […] 20 uL of 1.5 ug/mL RORc receptor was added to wells (or 40 uL Assay Buffer to No R wells). Following addition to the wells, the plates were incubated 3 h at 25° C.
Using a Packard Filtermate Harvester, the filter plates were washed 4 times following transfer of the incubated samples. Plates were dry-filtered completely (2 h at 50° C. or overnight at room temperature). 50 uL Microscint 0 was added to all wells and read on Topcount protocol Inverted.
Final concentrations were as follows: 50 mM HEPES buffer (pH 7.4); 150 mM NaCl; 1 mM DTT; 5 mM MgCl2; 0.01% BSA; 5% DMSO; 0.6 ug/mL RORc receptor; 6 nM 25-[^3H]hydroxycholesterol. For NSB wells, 1 uM 25-hydroxycholesterol was also present.

| SMILES | IC50 |
| --- | --- |
| Cc1cc(CN(CC(C)C)S(=O)(=O)Cc2ccccc2)ccc1-c1ccc(S(C)(=O)=O)cc1 [Compound 24, N-Isobutyl-N-(4′-methanesulfonyl-2-methyl-biphenyl-4-ylmethyl)-C-phenyl-methanesulfonamide] | 0.011 µM |
| Cc1cc(-c2ccc(S(C)(=O)=O)cc2)ccc1CN(CC(C)C)S(=O)(=O)Cc1ccccc1 [Compound 25, N-Isobutyl-N-(4′-methanesulfonyl-3-methyl-biphenyl-4-ylmethyl)-C-phenyl-methanesulfonamide] | 0.057 µM |
| CC(C)CN(Cc1ccc(-c2cccc(S(C)(=O)=O)c2)s1)S(=O)(=O)c1ccccc1 [Compound 28, N-Isobutyl-N-[5-(3-methanesulfonyl-phenyl)-thiophen-2-ylmethyl]-benzenesulfonamide] | 0.476 µM |
| CC(C)CN(Cc1ccc(-c2cccc(S(C)(=O)=O)c2)s1)S(=O)(=O)Cc1ccc(F)cc1 [Compound 30, C-(4-Fluoro-phenyl)-N-isobutyl-N-[5-(3-methanesulfonyl-phenyl)-thiophen-2-ylmethyl]-methanesulfonamide] | 1.4 µM |
| CC(C)CN(Cc1ccc(-c2cccc(S(C)(=O)=O)c2)s1)S(=O)(=O)Cc1cccc(F)c1 [Compound 31, C-(3-Fluoro-phenyl)-N-isobutyl-N-[5-(3-methanesulfonyl-phenyl)-thiophen-2-ylmethyl]-methanesulfonamide] | 1.3 µM |
| Cc1n[nH]c(C)c1S(=O)(=O)N(Cc1ccc(-c2cccc(S(C)(=O)=O)c2)s1)CC(C)C [Compound 32, 3,5-Dimethyl-1H-pyrazole-4-sulfonic acid isobutyl-[5-(3-methanesulfonyl-phenyl)-thiophen-2-ylmethyl]-amide] | 2.5 µM |
| CC(C)CN(Cc1ccc(-c2cccc(S(C)(=O)=O)c2)s1)S(=O)(=O)c1cccc(C#N)c1 [Compound 33, 3-Cyano-N-isobutyl-N-[5-(3-methanesulfonyl-phenyl)-thiophen-2-ylmethyl]-benzenesulfonamide] | 2.4 µM |
| CCn1cc(-c2ccc(CN(CC(C)C)S(=O)(=O)Cc3ccccc3)s2)cn1 [Compound 36, N-[5-(1-Ethyl-1H-pyrazol-4-yl)-thiophen-2-ylmethyl]-N-isobutyl-C-phenyl-methanesulfonamide] | 0.598 µM |
| CC(C)CN(Cc1ccc(-c2cccc(C(N)=O)c2)s1)S(=O)(=O)Cc1ccccc1 [Compound 41, 3-{5-[(Isobutyl-phenylmethanesulfonyl-amino)-methyl]-thiophen-2-yl}-benzamide] | 1.4 µM |
| CC(C)CN(Cc1ccc(-c2cccc(C(=O)N(C)C)c2)s1)S(=O)(=O)Cc1ccccc1 [Compound 43, 3-{5-[(Isobutyl-phenylmethanesulfonyl-amino)-methyl]-thiophen-2-yl}-N,N-dimethyl-benzamide] | 2.4 µM |
| CC(C)CN(Cc1ccc(-c2cncc(S(C)(=O)=O)c2)s1)S(=O)(=O)Cc1ccccc1 [Compound 44, N-Isobutyl-N-[5-(5-methanesulfonyl-pyridin-3-yl)-thiophen-2-ylmethyl]-C-phenyl-methanesulfonamide] | 2.5 µM |
| CC(C)CN(Cc1ccc(-c2ccnc(N)c2)s1)S(=O)(=O)Cc1ccccc1 [Compound 46, N-[5-(2-Amino-pyridin-4-yl)-thiophen-2-ylmethyl]-N-isobutyl-C-phenyl-methanesulfonamide] | 1.2 µM |
| CC(C)CN(Cc1ccc(-c2cncc(C#N)c2)s1)S(=O)(=O)Cc1ccccc1 [Compound 50, N-[5-(5-Cyano-pyridin-3-yl)-thiophen-2-ylmethyl]-N-isobutyl-C-phenyl-methanesulfonamide] | 3.1 µM |
| CNC(=O)c1ccc(-c2ccc(CN(CC(C)C)S(=O)(=O)Cc3ccccc3)s2)cn1 [Compound 51, 5-{5-[(Isobutyl-phenylmethanesulfonyl-amino)-methyl]-thiophen-2-yl}-pyridine-2-carboxylic acid methylamide] | 4.4 µM |
| COCCN(Cc1ccc(-c2ccc(S(C)(=O)=O)cc2)s1)S(=O)(=O)Cc1ccccc1 [Compound 57, N-[5-(4-Methanesulfonyl-phenyl)-thiophen-2-ylmethyl]-N-(2-methoxy-ethyl)-C-phenyl-methanesulfonamide] | 5.1 µM |
| CC(C)CN(Cc1cc(-c2ccc(S(C)(=O)=O)cc2)cs1)S(=O)(=O)Cc1ccccc1 [Compound 59, N-Isobutyl-N-[4-(4-methanesulfonyl-phenyl)-thiophen-2-ylmethyl]-C-phenyl-methanesulfonamide] | 0.278 µM |
| Cc1nn(C)c(C)c1S(=O)(=O)N(Cc1ccc(-c2cccc(S(C)(=O)=O)c2)s1)CC(C)C [Compound 61, 1,3,5-Trimethyl-1H-pyrazole-4-sulfonic acid isobutyl-[5-(3-methanesulfonyl-phenyl)-thiophen-2-ylmethyl]-amide] | 3.6 µM |

The next lines start with the values.

| IC50 | SMILES |
| --- | --- |
| 0.188 µM | CC(C)CN(Cc1ccc(-c2cccc(S(C)(=O)=O)c2)s1)S(=O)(=O)c1cccc(Cl)c1 [Compound 26, 3-Chloro-N-isobutyl-N-[5-(3-methanesulfonyl-phenyl)-thiophen-2-ylmethyl]-benzenesulfonamide] |
| 3.7 µM | CC(C)CN(Cc1ccc(-c2cccc(S(C)(=O)=O)c2)s1)S(=O)(=O)c1ccccc1C#N [Compound 27, 2-Cyano-N-isobutyl-N-[5-(3-methanesulfonyl-phenyl)-thiophen-2-ylmethyl]-benzenesulfonamide] |
| 1.5 µM | CC(C)CN(Cc1ccc(-c2cccc(S(C)(=O)=O)c2)s1)S(=O)(=O)Cc1ccccc1F [Compound 29, C-(2-Fluoro-phenyl)-N-isobutyl-N-[5-(3-methanesulfonyl-phenyl)-thiophen-2-ylmethyl]-methanesulfonamide] |
| 1.7 µM | CC(C)CN(Cc1ccc(-c2cccnc2)s1)S(=O)(=O)Cc1ccccc1 [Compound 37, N-Isobutyl-C-phenyl-N-(5-pyridin-3-yl-thiophen-2-ylmethyl)-methanesulfonamide] |
| 0.614 µM | CC(C)CN(Cc1ccc(-c2ccncc2)s1)S(=O)(=O)Cc1ccccc1 [Compound 38, N-Isobutyl-C-phenyl-N-(5-pyridin-4-yl-thiophen-2-ylmethyl)-methanesulfonamide] |
| 0.612 µM | CC(C)CN(Cc1ccc(-c2cnn(C)c2)s1)S(=O)(=O)Cc1ccccc1 [Compound 45, N-Isobutyl-N-[5-(1-methyl-1H-pyrazol-4-yl)-thiophen-2-ylmethyl]-C-phenyl-methanesulfonamide] |
| 0.377 µM | Cc1n[nH]c(C)c1-c1ccc(CN(CC(C)C)S(=O)(=O)Cc2ccccc2)s1 [Compound 49, N-[5-(3,5-Dimethyl-1H-pyrazol-4-yl)-thiophen-2-ylmethyl]-N-isobutyl-C-phenyl-methanesulfonamide] |
| 3 µM | CC(=O)Nc1ccc(-c2ccc(CN(CC(C)C)S(=O)(=O)Cc3ccccc3)s2)cn1 [Compound 52, N-(5-{5-[(Isobutyl-phenylmethanesulfonyl-amino)-methyl]-thiophen-2-yl}-pyridin-2-yl)-acetamide] |
| 0.195 µM | CC(C)N(Cc1ccc(-c2ccc(S(C)(=O)=O)cc2)s1)S(=O)(=O)Cc1ccccc1 [Compound 56, N-Isopropyl-N-[5-(4-methanesulfonyl-phenyl)-thiophen-2-ylmethyl]-C-phenyl-methanesulfonamide] |
| 3.1 µM | CCN(Cc1ccc(-c2ccc(S(C)(=O)=O)cc2)s1)S(=O)(=O)Cc1ccccc1 [Compound 58, N-Ethyl-N-[5-(4-methanesulfonyl-phenyl)-thiophen-2-ylmethyl]-C-phenyl-methanesulfonamide] |
| 1.8 µM | CC(C)CN(Cc1ccc(-c2cccc(S(C)(=O)=O)c2)s1)S(=O)(=O)C1CCCC1 [Compound 60, Cyclopentanesulfonic acid isobutyl-[5-(3-methanesulfonyl-phenyl)-thiophen-2-ylmethyl]-amide] |
